According to patent publication US10294202B2, “Pyrrolidinones as herbicides” (FMC Corporation, priority 2013, dated 2019):

Assays:
barnyardgrass = assay: Test A pre-/postemergence herbicide test; assay type: in vivo, Echinochloa crus-galli
Summary of the method: (§1)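 Approximately 10 days after treatment in the greenhouse, plants were compared with untreated controls and given a 0–100 visual injury rating. Applications: preemergence directed soil spray; postemergence on 2–10 cm plants at the one- to two-leaf stage.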

rice = assay: Test B flooded paddy test; assay type: in vivo, Oryza sativa; conditions: Flood, scale of 0 to 100 where 0 is no effect and 100 is complete control
Summary of the method: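 Paddy-water application at a 3 cm flood, young plants having two leaves. Water level maintained; greenhouse, 13–15 days; visual 0–100 control rating.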

blackgrass = assay: Test C pre-/postemergence herbicide test; assay type: in vivo, Alopecurus myosuroides; conditions: Preemergence; for Plant response rating (scale of 0 to 100), Blackgrass: 250 g ai/ha
Summary of the method: (§2)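 Plants grown and held in a greenhouse for 13 to 15 days post-spray, then rated 0–100 by visual comparison with controls. Pre treatments targeted seeds in loam and sand; post treatments targeted 1- to 4-leaf plants in peat-based potting medium.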

giant foxtail = assay: Test A pre-/postemergence herbicide test; assay type: in vivo, Setaria faberii
Summary of the method: as §1

pigweed = assay: Test A pre-/postemergence herbicide test; assay type: in vivo, Amaranthus retroflexus
Summary of the method: as §1

nutsedge, yellow = assay: Test C pre-/postemergence herbicide test; assay type: in vivo, Cyperus esculentus; conditions: Preemergence; for Plant response rating, Nutsedge, Yellow: 125 g ai/ha; for Plant response rating (scale of 0 to 100), Nutsedge, Yellow: 250 g ai/ha
Summary of the method: as §2

corn = assay: Test A pre-/postemergence herbicide test; assay type: in vivo, Zea mays
Summary of the method: as §1

velvetleaf = assay: Test C pre-/postemergence herbicide test; assay type: in vivo, Abutilon theophrasti; conditions: Preemergence; for Plant response rating, Velvetleaf: 125 g ai/ha; for Plant response rating (scale of 0 to 100), Velvetleaf: 250 g ai/ha
Summary of the method: as §2

foxtail, giant = assay: Test C pre-/postemergence herbicide test; assay type: in vivo, Setaria faberii; conditions: Preemergence; for Plant response rating, Foxtail, Giant: 125 g ai/ha; for Plant response rating (scale of 0 to 100), Foxtail, Giant: 250 g ai/ha
Summary of the method: as §2

johnsongrass = assay: Test C pre-/postemergence herbicide test; assay type: in vivo, Sorghum halepense; conditions: Preemergence; for Plant response rating, Johnsongrass: 125 g ai/ha; for Plant response rating (scale of 0 to 100), Johnsongrass: 250 g ai/ha
Summary of the method: as §2

oilseed rape = assay: Test C pre-/postemergence herbicide test; assay type: in vivo, Brassica napus; conditions: Preemergence; for Plant response rating, Oilseed Rape: 125 g ai/ha; for Plant response rating (scale of 0 to 100), Oilseed Rape: 250 g ai/ha
Summary of the method: as §2

[1] = Postemergence, 125 g ai/ha, 0 to 100 scale, 0 is no effect, 100 is complete control
[2] = Postemergence, 500 g ai/ha, 0 to 100 scale (0 no effect, 100 complete control)
[3] = Preemergence, 125 g ai/ha, 0 to 100 scale where 0 is no effect and 100 is complete control
[4] = preemergence, 500 g ai/ha, 0 to 100 scale, 0 is no effect and 100 is complete control
[5] = 31 g ai/ha, scale 0 to 100, 0 is no effect and 100 is complete control
[6] = 125 g ai/ha, scale 0 to 100 (0 no effect, 100 complete control)
[7] = 62 g ai/ha, scale 0 to 100 (0 no effect, 100 complete control)
[8] = scale 0 to 100 (0 no effect, 100 complete control)
[9] = Postemergence, 1000 g ai/ha, 0 to 100 scale (0 no effect, 100 complete control)
[10] = preemergence, 1000 g ai/ha, 0 to 100 scale

O=C1NCC(c2cccc(C(F)(F)F)c2)C1C(=O)Nc1cccc(F)c1F (stereo not drawn) [Compound 241]
95: Foxtail, Giant plant response rating (foxtail, giant; [7]) | Plant response rating, Foxtail, Giant (foxtail, giant; [8]) | Plant response rating (scale of 0 to 100), Foxtail, Giant (foxtail, giant)
90: Plant response rating, Barnyardgrass (barnyardgrass; [2]) | Plant response rating, Barnyardgrass (barnyardgrass; [4]) | Plant response rating, Foxtail, Giant (giant foxtail; [2]) | Plant response rating, Foxtail, Giant (giant foxtail; [3]) | Plant response rating, Foxtail, Giant (giant foxtail; [4]) | Foxtail, Giant plant response rating (foxtail, giant; [5]) | Plant response rating (scale of 0 to 100), Johnsongrass (johnsongrass)
20: Plant response rating, Pigweed (pigweed; [2]) | Plant response rating, Corn (corn; [3])
10: Plant response rating, Rice (rice; 1000 g ai/ha)
0: Plant response rating, Rice (rice; 250 g ai/ha) | Plant response rating, Pigweed (pigweed; [1]) | Plant response rating, Pigweed (pigweed; [3]) | Nutsedge, Yellow plant response rating (nutsedge, yellow; [5]) | Nutsedge, Yellow plant response rating (nutsedge, yellow; [7]) | Plant response rating, Nutsedge, Yellow (nutsedge, yellow; [8]) | Plant response rating (scale of 0 to 100), Nutsedge, Yellow (nutsedge, yellow) | Velvetleaf plant response rating (velvetleaf; [5]) | Velvetleaf plant response rating (velvetleaf; [7]) | Oilseed Rape plant response rating (oilseed rape; [5]) | Oilseed Rape plant response rating (oilseed rape; [7])
40: Plant response rating (scale of 0 to 100), Velvetleaf (velvetleaf)
5: Plant response rating, Velvetleaf (velvetleaf; [8])
50: Blackgrass plant response rating (blackgrass; [5]) | Plant response rating, Corn (corn; [1]) | Plant response rating, Corn (corn; [4])
80: Plant response rating, Barnyardgrass (barnyardgrass; [1]) | Plant response rating, Barnyardgrass (barnyardgrass; [3]) | Plant response rating, Blackgrass (blackgrass; [6]) | Plant response rating, Foxtail, Giant (giant foxtail; [1]) | Plant response rating, Corn (corn; [2]) | Johnsongrass plant response rating (johnsongrass; [7])
30: Plant response rating, Pigweed (pigweed; [4])
85: Plant response rating (scale of 0 to 100), Blackgrass (blackgrass) | Johnsongrass plant response rating (johnsongrass; [5]) | Plant response rating, Johnsongrass (johnsongrass; [8]) | Plant response rating (scale of 0 to 100), Oilseed Rape (oilseed rape)
70: Plant response rating, Blackgrass (blackgrass; 62 g ai/ha, scale 0 to 100) | Plant response rating, Oilseed Rape (oilseed rape; [8])

O=C(Nc1ccccc1F)C1C(=S)NCC1c1cccc(C(F)(F)F)c1 (stereo not drawn) [Compound 274]
70: Blackgrass plant response rating (blackgrass; [7]) | Plant response rating, Corn (corn; [9])
85: Foxtail, Giant plant response rating (foxtail, giant; [7])
5: Plant response rating, Oilseed Rape (oilseed rape; [8])
75: Plant response rating, Blackgrass (blackgrass; [6])
20: Plant response rating, Pigweed (pigweed; [9]) | Velvetleaf plant response rating (velvetleaf; [7]) | Plant response rating, Velvetleaf (velvetleaf; [8]) | Plant response rating (scale of 0 to 100), Velvetleaf (velvetleaf)
0: Plant response rating, Rice (rice; 500 g ai/ha) | Blackgrass plant response rating (blackgrass; [5]) | Plant response rating, Pigweed (pigweed; Postemergence, 125 g ai/ha, visual rating on 0 to 100 scale (0 no effect, 100 complete control), approx. 10 days) | Plant response rating, Pigweed (pigweed; [10]) | Nutsedge, Yellow plant response rating (nutsedge, yellow; [5]) | Nutsedge, Yellow plant response rating (nutsedge, yellow; [7]) | Plant response rating, Nutsedge, Yellow (nutsedge, yellow; [8]) | Plant response rating (scale of 0 to 100), Nutsedge, Yellow (nutsedge, yellow) | Velvetleaf plant response rating (velvetleaf; [5]) | Johnsongrass plant response rating (johnsongrass; [5]) | Johnsongrass plant response rating (johnsongrass; [7]) | Plant response rating, Johnsongrass (johnsongrass; [8]) | Oilseed Rape plant response rating (oilseed rape; [5]) | Oilseed Rape plant response rating (oilseed rape; [7])
90: Plant response rating, Barnyardgrass (barnyardgrass; [9]) | Plant response rating, Barnyardgrass (barnyardgrass; preemergence, 1000 g ai/ha, 0 to 100 scale (0 no effect, 100 complete control)) | Plant response rating (scale of 0 to 100), Blackgrass (blackgrass) | Plant response rating, Foxtail, Giant (giant foxtail; [9]) | Plant response rating, Foxtail, Giant (giant foxtail; [10]) | Plant response rating, Foxtail, Giant (foxtail, giant; [8])
30: Plant response rating (scale of 0 to 100), Johnsongrass (johnsongrass) | Plant response rating (scale of 0 to 100), Oilseed Rape (oilseed rape)
95: Plant response rating (scale of 0 to 100), Foxtail, Giant (foxtail, giant)
80: Foxtail, Giant plant response rating (foxtail, giant; [5])
